Data from patent US5385941A, “Salts/ion pairs of non-steroidal anti-inflammatory drugs in various dosage forms” (Warner-Lambert Company, priority 1993, dated 1995).
Values after ≈ are worked out from the molar mass of the structure shown.

Assay: physchem
Details: water

solubility: 30 µg/mL (≈ 101 µM)
SMILES: Cc1ccc(Cl)c(Nc2ccccc2C(=O)O)c1Cl [MA, Meclofenamic acid]
